Test results from patent publication US4845093A, “N-benzoyl-N'-pyridazinyloxyphenyl urea compounds, and antitumorous compositions containing them, and process for their preparation” (Ishihara Sangyo Kaisha Ltd., priority 1984, dated 1989).
Like-named read-outs stand apart in the source and are kept apart here.

How the values were obtained:
p-388 leukemia cells [1] = assay: Antitumour activity, P-388 leukemia in BDF1 mice, intraperitoneal-intraperitoneal (Test Example 1); assay type: in vivo; conditions: Mus musculus, P388, ip, 720 h, read-out: ILS (Increase Life Span); for ILS at 200 mg/kg: 200 mg/kg/day i.p.; for ILS at 400 mg/kg: 400 mg/kg/day i.p.
Experimental: To BDF1 mice, p-388 leukemia cells were intraperitoneally inoculated in an amount of 1×10^6 cells/mouse. A test drug was intraperitoneally administered twice, i.e. one day and four days after the inoculation. […] The increase life span ILS (%)^* was obtained with the number of survival days of mice of the control group to which a physiological saline was administered, being evaluated as 100. The drugs were dispersions obtained by adding small amounts of surfactants (e.g. Tween-80) to the test compounds.
*ILS(%): Increase Life Span, calculated in accordance with the following
formula: ILS(%) = MST - 100, where MST is the ratio of median survival
time of test and control animals.

p-388 leukemia cells [2] = assay: Antitumour activity, P-388 leukemia in BDF1 mice, intraperitoneal-oral (Test Example 2); assay type: in vivo; conditions: one and four days after i.p. inoculation, Formulation Example 4
Text: To BDF1 mice, p-388 leukemia cells were intraperitoneally inoculated in an amount of 1×10^6 cells/mouse. A test drug was orally administered twice i.e. one day and four days after the inoculation. […] The test drugs and comparative drugs were formulated in accordance with Formulation Example 4 given hereinafter.
*ILS(%), **Comparative Compound No. 1 and ***Comparative Compound No. 2
are the same as mentioned above in the notes of Table 1.
(§1) The Compound No. 1 of the present invention was preliminarily pulverized by a centrifugal pulverizer. On the other hand, 5 parts by weight of polyoxyethylene (60) hardened castor oil, 0.2 part by weight of silicone and 0.3 part by weight of a polyoxyethylene-polyoxypropylene block polymer were added to 79.5 parts by weight of a physiological saline to obtain an aqueous solution, to which 10 parts by weight of the above pulverized Compound No. 1 of the present invention was added. The mixture was pulverized in a wet system by a sand mill using glass beads (80% of particles having a particle size of not larger than 2 μm). Then, 5 parts by weight of xanthane gum (2% solution) was added thereto to obtain an aqueous suspension.

[3] = Acute toxicity in ddY mice, intraperitoneal; conditions: mouse, in vivo, ip, ddY mice (10 animals), formulated per Formulation Example 4
Experimental: To ddY mice (10 animals), a drug containing one of Compound Nos. 1-7 and 9-13 of the present invention formulated in accordance with Formulation Example 4 was intraperitoneally administered, and the LD50 value was measured and found to be at least 100 mg/kg in each case, and at least 50 mg/kg in the case of Compound Nos. 8 and 14 of the present invention.
as §1

[4] = one and four days after i.p. inoculation, 30 days observation
[5] = 100 mg/kg/day i.p., one and four days after i.p. inoculation, 30 days observation

Row | SMILES | ILS at 200 mg/kg (p-388 leukemia cells [1]; [4]) | LD50 [3] | further results
1 | O=c1[nH]cc(F)c(=O)[nH]1 [5-Fluorouracil, reference compound] | – | – | ILS at 60 mg/kg (p-388 leukemia cells [1]): 85%
2 | O=C(NC(=O)c1ccccc1Cl)Nc1ccc(Oc2ccc(Cl)nn2)c(Cl)c1 [Comparative Compound No. 1, N--(2chlorobenzoyl)-N'--[3chloro-4-(3-chloro-6-pyridazinyloxy)phenyl]urea, reference compound] | 24% | – | ILS at 400 mg/kg (p-388 leukemia cells [1]; [4]): 42%; ILS (Increase Life Span) (p-388 leukemia cells [2]; 800 mg/kg/day oral): 10%
3 | O=C(NC(=O)c1c(Cl)cccc1Cl)Nc1ccc(Oc2ccc(Cl)nn2)c(Cl)c1 [Comparative Compound No. 2, N--(2,6dichlorobenzoyl)-N'--[3chloro-4-(3-chloro-6-pyridazinyloxy)phenyl]rea, reference compound] | -3% | – | ILS at 400 mg/kg (p-388 leukemia cells [1]; [4]): 5%; ILS (Increase Life Span) (p-388 leukemia cells [2]; 800 mg/kg/day oral): 0%
4 | O=C(NC(=O)c1ccccc1[N+](=O)[O-])Nc1ccc(Oc2ccc(Br)nn2)c(Cl)c1 [Compound No. 1, N-(2-nitrobenzoyl)-N'-[4-(6-bromo-3-pyridazinyloxy)3-chlorophenyl]urea] | 178% | ≥ 100 mg/kg | ILS (Increase Life Span) (p-388 leukemia cells [2]; 200 mg/kg/day oral): 58%
5 | O=C(NC(=O)c1ccccc1[N+](=O)[O-])Nc1ccc(Oc2ccc(Cl)nn2)c(Cl)c1 [Compound No. 2, N-(2-nitrobenzoyl)-N'-[3-chloro-4-(6-chloro-3pyridazinyloxy)phenyl]urea] | 71% | ≥ 100 mg/kg | –
6 | O=C(NC(=O)c1ccccc1[N+](=O)[O-])Nc1ccc(Oc2ccc(I)nn2)c(Cl)c1 [Compound No. 3, N-(2-nitrobenzoyl)-N'-[3-chloro-4-(6-iodo-3-pyridazinyloxy)phenyl]urea] | – | ≥ 100 mg/kg | ILS at 100 mg/kg (p-388 leukemia cells [1]; [5]): 92%
7 | O=C(NC(=O)c1ccccc1[N+](=O)[O-])Nc1ccc(Oc2cccnn2)c(Cl)c1 [Compound No. 4, N-(2-nitrobenzoyl)-N'-[3-chloro-4-(3-pyridazinyloxy)phenyl]urea] | 70% | ≥ 100 mg/kg | –
8 | O=C(NC(=O)c1ccccc1[N+](=O)[O-])Nc1ccc(Oc2ccc(C(F)(F)F)nn2)c(Cl)c1 [Compound No. 5, N-(2-nitrobenzoyl)-N'-[3-chloro-4-(6-trifluoro-methyl-3-pyridazinyloxy)phenyl]urea] | 75% | ≥ 100 mg/kg | –
9 | O=C(NC(=O)c1ccccc1[N+](=O)[O-])Nc1ccc(Oc2ccc(Br)nn2)c(Br)c1 [Compound No. 6, N-(2-nitrobenzoyl)-N'-[3-bromo-4-(6-bromo-3-pyridazinyloxy)phenyl]urea] | – | ≥ 100 mg/kg | –
10 | O=C(NC(=O)c1ccccc1[N+](=O)[O-])Nc1ccc(Oc2ccc(Br)nn2)cc1 [Compound No. 7, N-(2-nitrobenzoyl)-N'-[4-(6-bromo-3-pyridazinyloxy)phenyl]urea] | – | ≥ 100 mg/kg | ILS at 100 mg/kg (p-388 leukemia cells [1]): > 120%
11 | O=C(NC(=O)c1ccccc1[N+](=O)[O-])Nc1ccc(Oc2ccc(Cl)nn2)c(C(F)(F)F)c1 [Compound No. 8, N-(2-nitrobenzoyl)-N'-[4-(6-chloro-3-pyridazinyloxy)-3-trifluoromethylphenyl]urea] | – | ≥ 50 mg/kg | ILS at 100 mg/kg (p-388 leukemia cells [1]; [5]): 75%
12 | O=C(NC(=O)c1ccccc1[N+](=O)[O-])Nc1ccc(Oc2ccc(Br)nn2)c(F)c1 [Compound No. 9, N-(2-nitrobenzoyl)-N'-[4-(6-bromo-3-pyridazinyloxy)-3-fluorophenyl]urea] | – | ≥ 100 mg/kg | ILS at 100 mg/kg (p-388 leukemia cells [1]): 90%; ILS (Increase Life Span) (p-388 leukemia cells [2]; 200 mg/kg/day oral): 52%
13 | O=C(NC(=O)c1ccc(Cl)cc1[N+](=O)[O-])Nc1ccc(Oc2ccc(Br)nn2)c(Cl)c1 [Compound No. 10, N-(4-chloro-2-nitrobenzoyl)-N'-[4-(6-bromo-3-pyridazinyloxy)-3-chlorophenyl]urea] | – | ≥ 100 mg/kg | ILS at 100 mg/kg (p-388 leukemia cells [1]): 111%; ILS (Increase Life Span) (p-388 leukemia cells [2]; 400 mg/kg/day oral): 32%
14 | O=C(NC(=O)c1ccc([N+](=O)[O-])cc1[N+](=O)[O-])Nc1ccc(Oc2ccc(Br)nn2)c(Cl)c1 [Compound No. 11, N-(2,4-dinitrobenzoyl)-N'-[4-(6-bromo-3-pyridazinyloxy)-3-chlorophenyl]urea] | – | ≥ 100 mg/kg | ILS at 100 mg/kg (p-388 leukemia cells [1]): 102%
15 | O=C(NC(=O)c1ccccc1Cl)Nc1ccc(Oc2ccc(Cl)nn2)c(C(F)(F)F)c1 [Compound No. 12, N-(2-chlorobenzoyl)-N'-[4-(6-chloro-3-pyridazinyloxy)-3-trifluoromethylphenyl]urea] | – | ≥ 100 mg/kg | –
16 | Cc1cc(NC(=O)NC(=O)c2ccccc2[N+](=O)[O-])ccc1Oc1ccc(Cl)nn1 [Compound No. 13, N-(2-nitrobenzoyl)-N'-[4-(6-chloro-3-pyridazinyloxy)-3-methylphenyl]urea] | – | ≥ 100 mg/kg | –
17 | O=C(NC(=O)c1ccc([N+](=O)[O-])cc1[N+](=O)[O-])Nc1ccc(Oc2ccc(Cl)nn2)c(C(F)(F)F)c1 [Compound No. 14, N-(2,4-dinitrobenzoyl)-N'-[4-(6-chloro-3-pyridazinyloxy)-3-trifluoromethylphenyl]urea] | – | ≥ 50 mg/kg | –
